# In publication PMC4627311, “Marine alkaloid Monanchocidin a overcomes drug resistance by induction of autophagy and lysosomal membrane permeabilization” (Oncotarget, 2015):
# Like-named read-outs stand apart in the source and are kept apart here.
# Legend:
# NCCIT-R cells [1] = assay: Western blotting / PAGE of protein extracts; type: cell-based, human; conditions: for Expression of LC3B-II (marker of autophagy): MonA 0.25 – 2 μM long-term or 20 – 50 μM short-term, reference drugs 48 h
# Method: (§1) Figure 3 Effect of MonA on activation of MAPK and protein degradation A, NCCIT-R cells were analyzed after treatment with MonA for 1 h by Western blotting. Cells treated with 50 μM of anisomycin for 1 h (Aniso) were used as a positive control for MAPK activation. […] C, Analysis of NCCIT-R cells treated with 1 μM of MonA for 1 h. […] Two samples of the spot were randomly picked from the area between ~5 kDa and ~1 kDa, followed by trypsination and identification of peptides by tandem mass spectrometry. D, Analysis of NCCIT-R cells treated with 20 μM of MonA for 1-3 h. Cleavage of PARP and caspase-3 were investigated as hallmarks of apoptosis. Cells treated with 10 μM of cisplatin (CP) for 48 h were used for comparison of the effects of a classical cytotoxic agent. E, Analysis of non-malignant HEK 293T cells treated with 0.0625 – 1 μM of MonA for 48 h.
# Figure 5 Effect of cytotoxic compounds on NCCIT-R cells A, NCCIT-R cells were treated with docetaxel, anisomycin, or cisplatin for 48 h. The effect on markers of apoptosis (cleavage of PARP and caspase-3) and autophagy (LC3B-II) were analyzed using Western blotting. While all show induction of apoptosis, expression of LC3B-II is not increased after treatment with these substances. B, Microphotographs of NCCIT-R cells treated with cisplatin or MonA for 48 h show morphological changes induced by the substances. The pictures were made at x100 magnification. Each bar represents 50 μm.
# (§2) Preparation of protein extracts and Western blotting were performed as described previously with slight modifications. In brief, 1 × 10^6 cells/well were seeded in Petri dishes (ø 6 cm, 5 mL/dish). Cells were harvested, proteins were extracted, subjected to electrophoresis in 10-15% SDS-polyacrylamide gels at 120 V, and transferred from gel to a 0.2 μm pore PVDF membrane. The membrane was blocked and incubated with the primary antibody according to the manufacturer's protocol (for antibodies used, see the supplementary). After washing, the membranes were incubated with the corresponding secondary antibody for 1 h at RT. Signals were detected using the ECL chemiluminescence system (Thermo Scientific, Rockford, IL, USA) according to the manufacturer's protocol.
# SDS-polyacrylamide gels were prepared as described above. Dye-free loading buffer was used for the protein samples preparation. Gels were fixed and stained with colloidal Coomassie Blue overnight, destained, and digitalized as previously described.
# 2102EP-R = assay: MTT cytotoxicity assay, 2102EP-R; type: cell-based, human; conditions: cisplatin-resistant GCT, 72 h
# Excerpt: (§3) The human prostate cancer cell lines PC3 (docetaxel resistant, androgen-independent), DU145 (docetaxel sensitive, androgen-independent), LNCaP (docetaxel sensitive, androgen-dependent), human bladder cancer cell lines RT112, RT4, 486p, T24, human embryonic kidney cell line HEK 293T, human embilical vascular endothelium cell line HUVEC, as well as human fibroblast cell lines MRC-5 and MRC-9 were obtained from ATCC (Manassas, VA, USA). The human germ cell tumor cancer cell line NCCIT was obtained from DSMZ (Braunschweig, Germany). TCam-2 and 2102EP cells were kindly provided by Prof. L. Looijenga (Rotterdam, The Netherlands). The cisplatin-resistant sublines NCCIT-R and 2102EP-R have been generated as reported before. Cells were cultured according to the manufacturers instructions (culture conditions are described in the supplementary). Cells were continuously kept in culture for a maximum of 3 months, and were routinely inspected microscopically for stable phenotype and regularly checked for contamination with mycoplasma. Cell line authentication was performed by DSMZ (Braunschweig, Germany) using highly polymorphic short tandem repeat loci.
# (§4) The in vitro cytotoxicity of individual substances and drug combinations was evaluated using the MTT (3-(4,5-dimethylthiazol-2-yl)-2,5-diphenyltetrazolium bromide) assay, which was performed as previously described.
# 486p = assay: MTT cytotoxicity assay, 486p; type: cell-based, human; conditions: bladder cancer, 72 h
# Excerpt: as §3, §4
# TCam-2 = assay: MTT cytotoxicity assay, TCam-2; type: cell-based, human; conditions: TCam-2, cisplatin-sensitive GCT, 72 h
# Excerpt: as §3, §4
# NCCIT = assay: MTT cytotoxicity assay, NCCIT; type: cell-based, human; conditions: cisplatin-sensitive GCT, 72 h
# Excerpt: as §3, §4
# RT112 = assay: MTT cytotoxicity assay, RT112; type: cell-based, human; conditions: 72 h
# Excerpt: as §3, §4
# NCCIT-R = assay: MTT cytotoxicity assay, NCCIT-R; type: cell-based, human
# Excerpt: as §3, §4
# 2102EP = assay: MTT cytotoxicity assay, 2102EP; type: cell-based, human; conditions: cisplatin-sensitive GCT, 72 h
# Excerpt: as §3, §4
# T24 = assay: MTT cytotoxicity assay, T24; type: cell-based, human; conditions: 72 h
# Excerpt: as §3, §4
# RT4 = assay: MTT cytotoxicity assay, RT4; type: cell-based, human; conditions: 72 h
# Excerpt: as §3, §4
# NCCIT-R cells [2] = system: NCCIT-R cells
# Method: (§6) F, Effect of MonA in combination with cisplatin on NCCIT-R cells, examined by the MTT assay. Cells were co-treated with different concentrations of the single substances or their combination for 48 h at a constant molar ratio. The combinational index (CI) values were calculated with CompuSyn software. The ratio of the substances is C(MonA) : C(cisplatin) = 1.2 : 10.
# (§7) Co-treatment of MonA and the indicated inhibitors for 48 h was performed. The combinational index (CI) values were calculated with the CompuSyn software for the Fa (fraction affected) = 0.5.
# (§8) Determination of synergistic or antagonistic drug effects in combination assays was performed using the Chou-Talalay method [20]. Data were generated by MTT assay. The combinational index (CI) was calculated for the constant drugs ratio with the CompuSyn v.1.0. software (ComboSyn, Inc., Paramus, NJ, USA). Synergism is defined as a CI < 1, whereas antagonism is defined by a CI > 1. The MTT assay was used to examine the combination of MonA at the IC50 with defined inhibitors of autophagy or LMP, or with the IC50 of cisplatin. […] All experiments were performed in triplicates and were repeated at least three times.
# MonA : z-VAD-fmk 1.2 µM : 100 µM
# MonA : calpeptine 1.2 µM : 50 µM
# MonA : leupeptine 1.2 µM : 100 µM
# (§9) MonA : protease inhibitors cocktail 1.2 µM : 0.02 tablet/ml
# (cOmplete Mini EDTA-free)
# NCCIT-R cells [3] = assay: Drug combination MTT assay, Chou-Talalay method (CI)
# Method: as §6, §7, §8
# MonA : z-VAD-fmk 1.2 µM : 100 µM
# MonA : calpeptine 1.2 µM : 50 µM
# MonA : leupeptine 1.2 µM : 100 µM
# as §9
# (cOmplete Mini EDTA-free)
# THP-1 = system: THP-1; design: method as in PMID 20804151; conditions: cited from earlier work
# NCCIT-R cells [4] = assay: Acridine orange staining of lysosomes (LMP); type: cell-based, human
# Method: (§5) Intact lysosomes were observed as organelles emitting red fluorescence (indicated by arrows). Red fluorescence was quantified using Image J software and is graphically depicted by column bars. B, Cells were treated with MonA for 48 h, and immobilized on glass plates. Samples were permeabilized, blocked, labeled with a primary anti-cathepsin B antibody, followed by a secondary Alexa Fluor 488-conjugated antibody labeling, and analyzed using fluorescent microscopy. […] The microphotographs (A, B) were made at x400 and x100 magnifications. Each bar represents 50 μm.
# NCCIT-R cells were pre-incubated overnight in 8-chamber glass slides (5 × 10^4 cells/chamber). The medium was changed with medium containing different concentrations of the substances examined, and cells were treated for 60 min. Then cells were washed twice with PBS solution, stained with 0.5 μg/mL of acridine orange/PBS for 15 min at 37°C, covered with DAPI-based ProLong® Gold reagent (Life Technologies, Eugene, OR, USA), and immediately analyzed with AxioScope.A1 (Carl Zeiss) microscope and with the AxioVision40 V4.8 software (Carl Zeiss Imaging Solutions, Göttingen, Germany). Red fluorescence measurements and quantification were performed with Image J software (NIH, Bethesda, USA).
# prostate cancer cells = assay: Western blotting of LC3B-II in prostate cancer cells; type: cell-based, human; conditions: 48 h
# Method: as §2
# HL-60 = system: HL-60; design: method as in PMID 20804151; conditions: cited from earlier work
# PC3 = assay: MTT cytotoxicity assay, PC3; type: cell-based; conditions: Homo sapiens, PC-3, PC3, prostate cancer, 72 h
# Excerpt: as §3, §4
# NCCIT-R cells [5] = assay: Detection of cathepsin B release; type: cell-based, human; conditions: 48 h
# Method: as §5
# To assess release of cathepsin B into the extracellular space, NCCIT-R cells were pre-incubated overnight in 6-well plates (2 × 10^5 cells/well), and were then treated with MonA for 48 h. After trypsination, cells were immobilized on glass slides using the cytospin method and dried overnight. Cells were fixed with 2% (w/v) PFA/PBS, washed with PBS and permeabilized with 0.1% (v/v) Triton X-100 solution in 2% (v/v) normal goat serum/PBS for 30 min. […] Then, samples were washed with PBS, covered with DAPI-based ProLong® Gold reagent (Life Technologies) and directly analyzed with AxioScope.A1 (Carl Zeiss) microscope and with the AxioVision40 V4.8 software (Carl Zeiss Imaging Solutions).
# DU145 = assay: MTT cytotoxicity assay, DU145; type: cell-based; conditions: Homo sapiens, DU-145, DU145, prostate cancer, 72 h
# Excerpt: as §3, §4
# LNCaP = assay: MTT cytotoxicity assay, LNCaP; type: cell-based; conditions: Homo sapiens, prostate cancer, 72 h
# Excerpt: as §3, §4
# MRC-9 = assay: MTT cytotoxicity assay, MRC-9; type: cell-based; conditions: Homo sapiens, MRC9, MRC-9, non-malignant, 72 h
# Excerpt: as §3, §4
# HEK 293T = assay: MTT cytotoxicity assay, HEK 293T; type: cell-based; conditions: Homo sapiens, non-malignant, 72 h
# Excerpt: as §3, §4
# HEK 293T cells = assay: Western blotting / PAGE, protein degradation in non-malignant cells; type: cell-based, human; conditions: non-malignant HEK 293T, 0.0625 – 1 μM, 48 h
# Method: as §1
# Preparation of protein extracts and Western blotting were performed as described previously with slight modifications. In brief, 1 × 10^6 cells/well were seeded in Petri dishes (ø 6 cm, 5 mL/dish). Cells were harvested, proteins were extracted, subjected to electrophoresis in 10-15% SDS-polyacrylamide gels at 120 V, and transferred from gel to a 0.2 μm pore PVDF membrane. […] Signals were detected using the ECL chemiluminescence system (Thermo Scientific, Rockford, IL, USA) according to the manufacturer's protocol. […]
# HUVEC = assay: MTT cytotoxicity assay, HUVEC; type: cell-based; conditions: Homo sapiens, non-malignant, 72 h
# Excerpt: as §3, §4
# MRC-5 = assay: MTT cytotoxicity assay, MRC-5; type: cell-based; conditions: Homo sapiens, MRC5, MRC-5, non-malignant, 72 h
# Excerpt: as §3, §4
# HeLa = system: HeLa; design: method as in PMID 20804151; conditions: cited from earlier work
compound,measurement,setting,value
"COc1ccc(C[C@H]2NC[C@H](O)[C@H]2OC(C)=O)cc1 [anisomycin, Anisomycin]",Markers of apoptosis (cleavage of PARP and caspase-3),NCCIT-R cells [1]; Western blotting,increase of markers of apoptosis
same,Expression of LC3B-II (marker of autophagy),NCCIT-R cells [1]; Western blotting,None of the drugs revealed an up-regulation of LC3B-II
"N.N.[Cl][Pt][Cl] [Cisplatin, cis-diamminedichloroplatinum (II), reference compound]",IC50,2102EP-R,4930 nM
same,IC50,486p,20800 nM
same,IC50,TCam-2,2480 nM
same,IC50,NCCIT,1560 nM
same,IC50,"RT112; RT112, bladder cancer",8990 nM
same,IC50,"NCCIT-R; cisplatin-resistant GCT, 72 h, MTT",8930 nM
same,IC50,2102EP,644 nM
same,Markers of apoptosis (cleavage of PARP and caspase-3),NCCIT-R cells [1]; Western blotting,increase of markers of apoptosis
same,Expression of LC3B-II (marker of autophagy),NCCIT-R cells [1]; Western blotting,None of the drugs revealed an up-regulation of LC3B-II
same,IC50,"T24; T24, bladder cancer",9070 nM
same,IC50,"RT4; RT4, bladder cancer",11900 nM
CC(=O)O[C@@]12CO[C@@H]1C[C@H](O)[C@@]1(C)C(=O)[C@H](O)C3=C(C)[C@@H](OC(=O)[C@H](O)[C@@H](NC(=O)OC(C)(C)C)c4ccccc4)C[C@@](O)([C@@H](OC(=O)c4ccccc4)[C@H]21)C3(C)C [docetaxel],Markers of apoptosis (cleavage of PARP and caspase-3),NCCIT-R cells [1]; Western blotting,increase of markers of apoptosis
same,Expression of LC3B-II (marker of autophagy),NCCIT-R cells [1]; Western blotting,None of the drugs revealed an up-regulation of LC3B-II
z-VAD(OMe)-fmk [z-VAD-fmk],Effect of inhibitor on cytotoxicity of MonA (combinational index),NCCIT-R cells [2],moderate antagonistic effect
"Cn1cnc(N)c2ncnc1-2 [3-MA, 3-methyladenine, reference compound]",Effect of inhibitor on cytotoxicity of MonA (combinational index),"NCCIT-R cells [3]; 48 h, MTT, CI at Fa = 0.5, ratios in Table S3",most pronounced antagonistic effect
"CC/C=C/[C@@H]1CC[C@]2(C[C@H]3CC[C@H]4[C@@H](C(=O)OC(CC)CCCCCCCCCCCCC[C@@H]5O[C@](O)(CCN)[C@H](O)N(CCCN)C5=O)[C@@]5(CCC[C@H](C)O5)NC(=[N+]34)N2)O1 (stereo partly drawn) [MonA, Monanchocidin A]",Cytotoxic activity,THP-1,micro- and nanomolar concentrations
same,IC50,2102EP-R; Homo sapiens,306 nM
same,Lysosomal membrane permeabilization (acridine orange fluorescence),NCCIT-R cells [4],disappearance of red fluorescence coupled with increased green fluorescence
same,IC50,486p; Homo sapiens,273 nM
same,Expression of LC3B-II (marker of autophagy),prostate cancer cells,up-regulation of LC3B-II
same,Cytotoxic activity,HL-60,micro- and nanomolar concentrations
same,IC50,PC3,420 nM
same,Concentration at which release of cathepsin B into the extracellular space occurred,NCCIT-R cells [5],≥ 2 µM
same,IC50,DU145,482 nM
same,IC50,TCam-2; Homo sapiens,440 nM
same,IC50,LNCaP,265 nM
same,IC50,NCCIT; Homo sapiens,210 nM
same,Effect of MonA in combination with cisplatin (combinational index),"NCCIT-R cells [3]; 48 h co-treatment, C(MonA) : C(cisplatin) = 1.2 : 10",strong synergistic effects
same,IC50,"RT112; Homo sapiens, RT-112, RT112, bladder cancer",263 nM
same,IC50,MRC-9,708 nM
same,IC50,HEK 293T,670 nM
same,Protein degradation,HEK 293T cells,did not reveal any signs of protein degradation
same,IC50,"NCCIT-R; Homo sapiens, 48 h of treatment",500 to 1000 nM
same,IC50,"NCCIT-R; Homo sapiens, cisplatin-resistant GCT, 72 h, MTT",253 nM
same,IC50,HUVEC,838 nM
same,IC50,2102EP; Homo sapiens,341 nM
same,IC50,MRC-5,756 nM
same,Cytotoxic activity,HeLa,micro- and nanomolar concentrations
same,"Activation of MAPK (p38, ERK, JNK)","NCCIT-R cells [1]; 50 μM, 1 h, Western blotting","Activation of p38 and ERK, but not JNK"
same,Expression of LC3B-II (marker of autophagy),NCCIT-R cells [1]; Western blotting,up-regulation of LC3B-II
same,Protein degradation,NCCIT-R cells [1]; short term 30 μM - 50 μM or long-term 0.5 μM - 2 μM,Degradation of different proteins was observed
same,IC50,"T24; Homo sapiens, T-24, T24, bladder cancer",413 nM
same,IC50,"RT4; Homo sapiens, RT-4, RT4, bladder cancer",580 nM
